Assay results: PubChem BioAssay AID330 (DTP/NCI, 2004)
Several values for one entry are separate records, joined by “and”; a condition that tells them apart may be missing. Equal values may be shown once. Toxic doses and inconclusive results are not listed.

System: P388 leukemia ip, CD2F1 mice, survival T/C
Test: NCI In Vivo Anticancer Drug Screen. Data for tumor model P388 Leukemia (intraperitoneal) in CD2F1 (CDF1) mice
Conditions: endpoint: median survival time, higher = longer survival
Method in brief: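 Mice carrying the transplanted tumor received test compound or vehicle. Survival was recorded in each group, and the value is the treated-group measurement divided by that of the vehicle-treated control group.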

[1] = dose: 50.0 mg/kg/injection, schedule: Q01DX009 (ip), vehicle: suspension in saline
[2] = dose: 100.0 mg/kg/injection, schedule: Q01DX009 (ip), vehicle: suspension in saline
[3] = dose: 200.0 mg/kg/injection, schedule: Q01DX009 (ip), vehicle: suspension in saline
[4] = dose: 60.0 mg/kg/injection, schedule: Q01DX005 (ip), vehicle: saline with Tween-80
[5] = dose: 120.0 mg/kg/injection, schedule: Q01DX005 (ip), vehicle: saline with Tween-80
[6] = dose: 50.0 mg/kg/injection, schedule: Q01DX009 (ip), vehicle: Klucel (hydroxypropylcellulose) (HPC)
[7] = dose: 100.0 mg/kg/injection, schedule: Q01DX009 (ip), vehicle: Klucel (hydroxypropylcellulose) (HPC)
[8] = dose: 200.0 mg/kg/injection, schedule: Q01DX009 (ip), vehicle: Klucel (hydroxypropylcellulose) (HPC)
[9] = dose: 12.5 mg/kg/injection, schedule: Q01DX009 (ip), vehicle: Klucel (hydroxypropylcellulose) (HPC)
[10] = dose: 25.0 mg/kg/injection, schedule: Q01DX009 (ip), vehicle: Klucel (hydroxypropylcellulose) (HPC)
[11] = dose: 50.0 mg/kg/injection, schedule: Q01DX009 (ip), vehicle: saline
[12] = dose: 100.0 mg/kg/injection, schedule: Q01DX009 (ip), vehicle: saline
[13] = dose: 200.0 mg/kg/injection, schedule: Q01DX009 (ip), vehicle: saline
[14] = dose: 240.0 mg/kg/injection, schedule: Q01DX005 (ip), vehicle: saline with Tween-80
[15] = dose: 50.0 mg/kg/injection, schedule: Q01DX005 (ip), vehicle: saline with Tween-80
[16] = dose: 100.0 mg/kg/injection, schedule: Q01DX005 (ip), vehicle: saline with Tween-80
[17] = dose: 12.5 mg/kg/injection, schedule: Q01DX009 (ip), vehicle: saline
[18] = dose: 50.0 mg/kg/injection, schedule: Q01DX009 (ip), vehicle: saline with Tween-80
[19] = dose: 100.0 mg/kg/injection, schedule: Q04DX003 (ip), vehicle: Klucel (hydroxypropylcellulose) (HPC)
[20] = dose: 200.0 mg/kg/injection, schedule: Q04DX003 (ip), vehicle: Klucel (hydroxypropylcellulose) (HPC)
[21] = dose: 400.0 mg/kg/injection, schedule: Q04DX003 (ip), vehicle: Klucel (hydroxypropylcellulose) (HPC)

For O=c1[nH]c(=S)[nH]cc1-c1ccc(Cl)c(Cl)c1, the T/C [1] was 105 % of control, the T/C [2] was 104 % of control and the T/C [3] was 106 % of control.

For Cc1ccc(C(=O)C(CN(C)C)CN(C)C)cc1C, the T/C (dose: 3.12 mg/kg/injection, schedule: Q01DX005 (ip), vehicle: saline) was 109 % of control, the T/C (dose: 6.25 mg/kg/injection, schedule: Q01DX005 (ip), vehicle: saline) was 119 % of control and 124 % of control and the T/C (dose: 25.0 mg/kg/injection, schedule: Q01DX005 (ip), vehicle: saline) was 114 % of control.

COC(=O)[C@H](C)C1OC(O)C=CC1=O (stereo partly specified) was tested, and the T/C (dose: 6.25 mg/kg/injection, schedule: Q01DX001 (ip), vehicle: saline + Tween-80 + alcohol) was 100 % of control, the T/C (dose: 12.5 mg/kg/injection, schedule: Q01DX001 (ip), vehicle: saline + Tween-80 + alcohol) was 108 % of control and the T/C (dose: 25.0 mg/kg/injection, schedule: Q01DX001 (ip), vehicle: saline + Tween-80 + alcohol) was 101 % of control. The T/C (dose: 50.0 mg/kg/injection, schedule: Q01DX001 (ip), vehicle: saline + Tween-80 + alcohol) was 101 % of control.

With O=[N+]([O-])c1ccc(N2c3ccccc3SC2c2ccco2)c([N+](=O)[O-])c1 (stereo unspecified) the T/C (dose: 1.5 mg/kg/injection, schedule: Q01DX005 (ip), vehicle: saline with Tween-80) was 102 % of control, the T/C (dose: 3.0 mg/kg/injection, schedule: Q01DX005 (ip), vehicle: saline with Tween-80) was 102 % of control and the T/C (dose: 6.0 mg/kg/injection, schedule: Q01DX005 (ip), vehicle: saline with Tween-80) was 91 % of control.

In the case of CNC(=O)Nc1ccn(C(=O)NC)c(=O)n1, the T/C (dose: 100.0 mg/kg/injection, schedule: Q04DX002 (ip), vehicle: Klucel (hydroxypropylcellulose) (HPC)) is reported as 114 % of control and the T/C (dose: 200.0 mg/kg/injection, schedule: Q04DX002 (ip), vehicle: Klucel (hydroxypropylcellulose) (HPC)) is reported as 120 % of control.

For c1ccc(-c2ccc[n+](CC[n+]3cccc(-c4ccccn4)c3)c2)nc1, the T/C [4] was 104 % of control and the T/C [5] was 100 % of control.

With CC1NC(=O)C(C)NC1=O (stereo unspecified) the T/C [6] was 93 % of control, the T/C [7] was 96 % of control and the T/C [8] was 94 % of control.

With OCCCCc1nccc2c1[nH]c1ccccc12 the T/C [9] was 106 % of control, the T/C [10] was 106 % of control and the T/C [6] was 104 % of control. For the same compound, the T/C [7] was 95 % of control.

In the case of COc1ccc(CSC(=S)Nc2ccc(F)cc2F)cc1, the T/C [6] is reported as 99 % of control, the T/C [1] is reported as 106 % of control and the T/C [7] is reported as 107 % of control. For the same compound, the T/C [2] was 100 % of control, the T/C [8] was 112 % of control and the T/C [3] was 98 % of control.

For CC1(Cc2c[nH]c(=O)[nH]c2=O)C(=O)NC(=O)NC1=O, the T/C [6] was 105 % of control, the T/C [7] was 100 % of control and the T/C [8] was 98 % of control.

For CN1CCC2(CCNCC2)C1=O, the T/C [11] was 86 % of control, the T/C [12] was 100 % of control and the T/C [13] was 95 % of control.

Cc1c(Br)c(C)[n+]([O-])n1O was tested, and the T/C (dose: 60.0 mg/kg/injection, schedule: Q01DX005 (ip), vehicle: Klucel (hydroxypropylcellulose) (HPC)) was 99 % of control and the T/C (dose: 120.0 mg/kg/injection, schedule: Q01DX005 (ip), vehicle: Klucel (hydroxypropylcellulose) (HPC)) was 95 % of control.

In the case of O=[N+]([O-])c1cc(C(F)(F)F)ccc1F, the T/C [10] is reported as 106 % of control and the T/C [6] is reported as 106 % of control.

CSc1c(C)c(C)nn1-c1ccccc1 was tested, and the T/C [4] was 104 % of control, the T/C [5] was 111 % of control and the T/C [14] was 104 % of control.

In the case of C=C1C(=O)OC2/C=C(\C)CC/C=C(\C)C(OC(C)=O)C(OC(=O)C3(C)OC3C)C12O (stereo unspecified), the T/C [9] is reported as 105 % of control, the T/C [10] is reported as 115 % of control and the T/C [6] is reported as 115 % of control. The T/C [7] was 94 % of control.

With C=C1C(=O)OC2/C=C(\C)C(O)CC(O)C(C)(O)CC(OC(=O)/C(C)=C/C)C12 (stereo unspecified) the T/C (dose: 10.0 mg/kg/injection, schedule: Q01DX009 (ip), vehicle: saline with Tween-80) was 102 % of control, the T/C (dose: 20.0 mg/kg/injection, schedule: Q01DX009 (ip), vehicle: saline with Tween-80) was 100 % of control and 119 % of control and 97 % of control and the T/C (dose: 40.0 mg/kg/injection, schedule: Q01DX009 (ip), vehicle: saline with Tween-80) was 101 % of control and 113 % of control and 123 % of control. For the same compound, the T/C (dose: 80.0 mg/kg/injection, schedule: Q01DX009 (ip), vehicle: saline with Tween-80) was 113 % of control and 115 % of control.

For COC(=O)C1=CO[C@@H](C)[C@@H]2CN3CCc4c([nH]c5cc(OC)ccc45)[C@@H]3C[C@H]12, the T/C [15] was 96 % of control and the T/C [16] was 92 % of control.

With c1ccc2c(c1)ccc1ncc3ncccc3c12 the T/C (dose: 100.0 mg/kg/injection, schedule: Q04DX002 (ip), vehicle: saline with Tween-80) was 98 % of control and the T/C (dose: 200.0 mg/kg/injection, schedule: Q04DX002 (ip), vehicle: saline with Tween-80) was 114 % of control.

With CC1SC(C)SC(C(C)(C)O)S1 (stereo unspecified) the T/C [15] was 100 % of control, the T/C [16] was 100 % of control and the T/C (dose: 200.0 mg/kg/injection, schedule: Q01DX005 (ip), vehicle: saline with Tween-80) was 100 % of control.

With NC(=O)C1C2CCC(O2)C1C(=O)O (stereo unspecified) the T/C (dose: 1.56 mg/kg/injection, schedule: Q01DX005 (ip), vehicle: Klucel (hydroxypropylcellulose) (HPC)) was 99 % of control, the T/C (dose: 3.12 mg/kg/injection, schedule: Q01DX005 (ip), vehicle: Klucel (hydroxypropylcellulose) (HPC)) was 97 % of control and the T/C (dose: 6.25 mg/kg/injection, schedule: Q01DX005 (ip), vehicle: Klucel (hydroxypropylcellulose) (HPC)) was 95 % of control.

CC(C)[NH-].CC(C)[NH-].O.O.[Cl][Pt+2][Cl] was tested, and the T/C (dose: 8.0 mg/kg/injection, schedule: Q01DX009 (ip), vehicle: saline with Tween-80) was 167 % of control, the T/C (dose: 12.5 mg/kg/injection, schedule: Q01DX009 (ip), vehicle: saline with Tween-80) was 184 % of control and the T/C (dose: 18.0 mg/kg/injection, schedule: Q01DX009 (ip), vehicle: saline with Tween-80) was 202 % of control.

For C=CC(=NC(C)(C)C)Nc1ccccc1C(=O)OC, the T/C [17] was 108 % of control, the T/C (dose: 25.0 mg/kg/injection, schedule: Q01DX009 (ip), vehicle: saline) was 107 % of control and the T/C [18] was 101 % of control. The T/C [11] was 108 % of control.

In the case of N#Cc1c(N)nc(N)nc1Nc1ccc(Cl)cc1, the T/C [4] is reported as 113 % of control, the T/C [5] is reported as 110 % of control and the T/C [14] is reported as 115 % of control.

For Cn1nnnc1/C=C/c1ccccc1, the T/C [19] was 106 % of control, the T/C [20] was 104 % of control and the T/C [21] was 105 % of control.

CCN(CC)CCN(CC)CC.O.[Cu+2].[O-][Cl+3]([O-])([O-])O was tested, and the T/C (dose: 3.12 mg/kg/injection, schedule: Q01DX009 (ip), vehicle: saline) was 112 % of control, the T/C (dose: 6.25 mg/kg/injection, schedule: Q01DX009 (ip), vehicle: saline) was 100 % of control and the T/C [17] was 114 % of control.

With COC(=O)C1C(=O)COc2ccccc21 (stereo unspecified) the T/C (dose: 100.0 mg/kg/injection, schedule: Q04DX003 (ip), vehicle: saline) was 105 % of control, the T/C (dose: 200.0 mg/kg/injection, schedule: Q04DX003 (ip), vehicle: saline) was 106 % of control and the T/C (dose: 400.0 mg/kg/injection, schedule: Q04DX003 (ip), vehicle: saline) was 106 % of control.

For O=c1oc(-c2ccccc2CCl)nc2ccccc12, the T/C [18] was 106 % of control, the T/C (dose: 100.0 mg/kg/injection, schedule: Q01DX009 (ip), vehicle: saline with Tween-80) was 104 % of control and the T/C (dose: 200.0 mg/kg/injection, schedule: Q01DX009 (ip), vehicle: saline with Tween-80) was 101 % of control.

CCOC(=O)NOC1CCCCO1 (stereo unspecified) was tested, and the T/C [11] was 91 % of control, the T/C [12] was 105 % of control and the T/C [13] was 104 % of control.

With COc1ccc(-c2nccc3cc(OC)c(OC)cc23)cc1OC the T/C (dose: 6.25 mg/kg/injection, schedule: Q01DX009 (ip), vehicle: water) was 100 % of control, the T/C (dose: 12.5 mg/kg/injection, schedule: Q01DX009 (ip), vehicle: water) was 103 % of control and the T/C (dose: 25.0 mg/kg/injection, schedule: Q01DX009 (ip), vehicle: water) was 106 % of control. For the same compound, the T/C (dose: 50.0 mg/kg/injection, schedule: Q01DX009 (ip), vehicle: water) was 118 % of control.

With C/[N+]([O-])=C/c1ccccc1 the T/C [19] was 104 % of control, the T/C [20] was 106 % of control and the T/C [21] was 108 % of control.

For O=c1nc(Oc2ccc([N+](=O)[O-])cc2)nc2ccccn12, the T/C [6] was 99 % of control, the T/C [7] was 87 % of control and the T/C [8] was 87 % of control.
